Source: ChEMBL document CHEMBL4043261, “Cytotoxic properties of the alkaloid rutaecarpine and its oligocyclic derivatives and chemical modifications to enhance water-solubility” (Bioorg Med Chem Lett, 2017)
≈ marks a conversion by molar mass, not a printed value.

Legend:
HeLa = assay: Cytotoxicity against human HeLa cells by MTT assay; assay type: functional, cell-based
[1] = Solubility of the compound in minimal essential medium at 1 to 2 mg after 24 hrs in absence of 10% FCS by HPLC-UV based shake-flask method; assay type: physicochemical; conditions: BLD = below limit of detection
[2] = Solubility of the compound in minimal essential medium at 1 to 2 mg after 24 hrs in presence of 10% FCS by HPLC-UV based shake-flask method; assay type: physicochemical; conditions: BLD = below limit of detection
[3] = Aqueous solubility of the compound in phosphate buffered saline at pH 6.8 after 24 hrs by HPLC-UV based shake-flask method; assay type: physicochemical
[4] = Aqueous solubility of the compound in phosphate buffered saline at pH 7.4 after 24 hrs by HPLC-UV based shake-flask method; assay type: physicochemical
[5] = Intrinsic solubility of the compound at pH 2 by turbidimetric titration method; assay type: physicochemical; conditions: buffer, read-out: Intrinsic_solubility
[6] = Dissociation constant, pka of the compound by potentiometric titration method; assay type: physicochemical
[7] = Aqueous solubility of the compound in deionized water after 24 hrs by HPLC-UV based shake-flask method; assay type: physicochemical; conditions: buffer
[8] = Solubility of the compound in water; assay type: physicochemical; conditions: buffer
[9] = phosphate buffered saline, pH 6.8
[10] = phosphate buffered saline, pH 7.4

Row | solubility [1] | solubility [2] | SMILES | EC50 (HeLa) [µM] | also measured
1 | Bld | Bld | COc1cc2nc3n(c(=O)c2cc1OC)CCc1c-3[nH]c2ccccc12 | 60.8 | 
2 |  |  | Cl.O=c1c2cc(O)ccc2nc2n1CCc1c-2n(CCCN2CCCCC2)c2ccccc12 | 15.4 | solubility thermodynamic at 24 h [3, 9]: 1710 µM; solubility thermodynamic at 24 h [4, 10]: 441 µM; solubility [5]: 15.5 µM; pKa [6]: 8.8
3 |  |  | CCN(CC)CCCn1c2c(c3ccccc31)CCn1c-2nc2ccc(O)cc2c1=O.Cl | 9.8 | solubility thermodynamic at 24 h [3, 9]: 7400 µM; solubility thermodynamic at 24 h [4, 10]: 1900 µM; solubility [5]: 53.2 µM; pKa [6]: 8.94
4 |  |  | O=c1c2cc(O)ccc2nc2n1CCc1ccccc1-2 | 53.9 | 
5 | Bld | Bld | O=c1c2cc(Cl)ccc2nc2n1CCc1ccccc1-2 | 20.6 | 
6 | Bld | Bld | O=c1c2sc3ccccc3c2nc2n1CCc1c-2[nH]c2ccccc12 | 8.4 | 
7 |  |  | O=c1c2sc3ncccc3c2nc2n1CCc1c-2[nH]c2ccccc12 | 22.1 | 
8 |  |  | CCN(CC)CCCOc1ccc2nc3n(c(=O)c2c1)CCc1c-3[nH]c2ccccc12.Cl | 17.1 | solubility thermodynamic at 24 h [3, 9]: 180 µM; solubility thermodynamic at 24 h [4, 10]: 45.8 µM; solubility [5]: 0.7 µM; pKa [6]: 9.29
9 |  |  | O=c1c2ccccc2nc2n1CCc1ccccc1-2 | 64.2 | 
10 |  |  | O=c1c2cc(O)ccc2nc2n1CCc1c-2[nH]c2ccccc12 | 11.3 | 
11 | Bld | Bld | Cl.O=c1c2cc(OCCCN3CCCCC3)ccc2nc2n1CCc1c-2[nH]c2ccccc12 | 16.3 | solubility thermodynamic at 24 h [3, 9]: 21.8 µM; solubility thermodynamic at 24 h [4, 10]: 5.62 µM; solubility [5]: 0.21 µM; pKa [6]: 9.36
12 |  |  | O=c1c2cc(Cl)ccc2nc2n1CCc1c-2[nH]c2ccccc12 | 7.2 | 
13 |  |  | C=C1C(=O)O[C@@H]2C[C@@H](C)[C@@H]3C=CC(=O)[C@@]3(C)[C@@H](O)[C@H]12 [HELENALIN] | 0.7 | 
14 | Bld | Bld | O=c1c2ccccc2nc2n1CCc1c-2[nH]c2ccccc12 [RUTAECARPINE] | 26.1 | solubility [7]: 0.0328 µM (≈ 9.42 ng/mL); solubility thermodynamic at 24 h ([3]; buffer, pH 6.8, 24 h): 0.0257 µM (≈ 7.38 ng/mL); solubility thermodynamic at 24 h ([4]; buffer, pH 7.4, 24 h): 0.0271 µM (≈ 7.79 ng/mL); solubility [8]: 0.033 µM (≈ 9.48 ng/mL)
